One assay deals with T1, sTAAR365 E7.36D (Petromyzon marinus, UniProt A0A678XMK4, E292D).
T1 sequence (A0A678XMK4 1-365 E292D): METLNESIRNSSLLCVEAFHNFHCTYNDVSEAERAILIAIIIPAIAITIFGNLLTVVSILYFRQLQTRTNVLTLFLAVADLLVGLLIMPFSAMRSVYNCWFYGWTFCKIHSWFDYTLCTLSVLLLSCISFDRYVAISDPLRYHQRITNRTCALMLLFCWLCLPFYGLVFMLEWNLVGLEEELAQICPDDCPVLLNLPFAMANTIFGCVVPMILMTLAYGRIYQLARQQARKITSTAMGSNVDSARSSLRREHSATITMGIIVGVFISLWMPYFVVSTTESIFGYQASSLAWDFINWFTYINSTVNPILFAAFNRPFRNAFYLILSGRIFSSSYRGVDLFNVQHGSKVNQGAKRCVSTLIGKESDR
The assay is described as follows: cell-based.

The next assay deals with T2, sTAAR365 E7.36A (Petromyzon marinus, UniProt A0A678XMK4, E292A).
T2 sequence (A0A678XMK4 1-365 E292A): T1 sequence (A0A678XMK4 1-365 E292D) with D292A
The experiment in a line: cell-based.

A further assay deals with T3, sTAAR365 Y6.51F (Petromyzon marinus, UniProt A0A678XMK4, Y272F).
T3 sequence (A0A678XMK4 1-365 Y272F): T1 sequence (A0A678XMK4 1-365 E292D) with Y272F, D292E
The assay is described as follows: cell-based.

For a further assay, the target named is T4, sTAAR365 W7.40Y (Petromyzon marinus, UniProt A0A678XMK4, W296Y).
T4 sequence (A0A678XMK4 1-365 W296Y): T1 sequence (A0A678XMK4 1-365 E292D) with D292E, W296Y
The experiment in a line: cell-based.

The target of the next assay is T5, WT sTAAR365 (Petromyzon marinus, UniProt A0A678XMK4).
T5 sequence (A0A678XMK4 1-365): T1 sequence (A0A678XMK4 1-365 E292D) with D292E
The experiment in a line: cAMP TR-FRET assay, wild-type sTAAR365 in HEK293T. The format is cell-based, sea lamprey. Particulars: for activation of sTAAR365 (cAMP accumulation): ligand 1 mM, HEK293T, Fig. 2A. How it is done: HEK293T cells were transfected with sea lamprey sTAAR365 for 24 h and assayed for Golf-mediated cAMP production with a TR-FRET assay at 30 min after ligand addition. Receptor activity was normalized to the cAMP level in buffer-treated cells (mean ± S.D., n = 3). A, HEK293T cells expressing sTAAR365 or mock plasmid were incubated with either vehicle or tested ligands (1 mM). […] B, concentration-dependent cAMP production of HEK293T cells expressing sTAAR365 stimulated with cadaverine, putrescine, and spermine.

Data on 3 compounds can be found in paper PMC8546428, “Convergent olfactory trace amine-associated receptors detect biogenic polyamines with distinct motifs via a conserved binding site” (The Journal of Biological Chemistry, 2021).

Each structure is given as a SMILES string. Changes are numbered by the printed parent chain.

For orientation: EC50 means the concentration that produces a half-maximal response. On to `NCCCCCN` [cadaverine], for which the EC50 came out at 0.007 ± 0.002 µM at sTAAR365 E7.36D; 0.05 ± 0.02 µM on sTAAR365 E7.36A; 1.7 ± 0.9 µM at sTAAR365 Y6.51F; 0.127 ± 0.041 µM at sTAAR365 W7.40Y; 0.004 µM on WT sTAAR365. Moreover, the “difference in potency, cadaverine vs putrescine” value on WT sTAAR365 (WT sTAAR365) was 1000 fold. The response threshold on WT sTAAR365 (WT sTAAR365, cAMP production) was approximately 100 pM. In addition, the “activation of sTAAR365 (cAMP accumulation)” value (from here on “activation of sTAAR365”) at WT sTAAR365 was “activated”.
As for `NCCCCN` [putrescine], the EC50 at sTAAR365 E7.36D is 72 ± 14 µM; at sTAAR365 E7.36A it was 420 ± 87 µM; at sTAAR365 Y6.51F it was more than 500 µM; on sTAAR365 W7.40Y, more than 500 µM; on WT sTAAR365, 56 µM. For the same compound, the “activation of sTAAR365” value at WT sTAAR365 is on record as “activated”.
As to `NCCCNCCCCNCCCN` [spermine], the EC50 on sTAAR365 E7.36D was more than 500 µM; at sTAAR365 E7.36A, more than 500 µM; at sTAAR365 Y6.51F it was 114 ± 20 µM; on sTAAR365 W7.40Y, 530 ± 259 µM; at WT sTAAR365 it was 28 µM. Moreover, the “maximal response (Emax) relative to cadaverine/putrescine” value on WT sTAAR365 (WT sTAAR365, cAMP production) is on record as “one-third”. Further, the “activation of sTAAR365” value on WT sTAAR365 was “activated”.
